Measurements published in patent US9239334B2, “Fatty acid C16: 1N7-palmitoleate a lipokine and biomarker for metabolic status” (PRESIDENT AND FELLOWS OF HARVARD COLLEGE, priority 2008, dated 2016).

Tests used:
[1] = test system: SCD-1, FAS and ELOVL6 expression in liver; assay: Liver lipogenic gene expression after 6-hour lipid infusion; assay type: in vivo; details: 6-hour infusion, compared to vehicle-infused mice
Excerpt: FIG. 5A-5E reflects the regulation of SCD-1 promoter activity in vivo. […] PUF: polyunsaturated fatty acid response element. FIG. 5B is the regulation of WT and mutant SCD-1 promoter activities by fatty acids. AA: arachidonic acid. FIG. 5C is the regulation of wild-type and mutant SCD-1 promoter activities by plasma lipids. Plasma lipids extracted from WT or FABP^−/− (DK) mice were used to treat FAO cells Infected with WT or mutant SCD-1 promoter-carrying adenoviruses and luciferase assays performed as described in the Examples. FIG. 5D presents the in vivo regulation of wild-type and mutant SCD-1 promoter activities. Luciferase assays were performed on liver tissues of WT or DK mice injected with WT or mutant SCD-1 reporter carrying adenoviruses. FIG. 5E is liver gene expression in mice infused with vehicle, TG:palmitate or TG:palmitoleate. *, p<0.05. […] INTRALIPID® fatty acid lipid infusion solution with 2 mM triglycerides:palmitate or palmitoleate were prepared using a previously described protocol with modifications (Stein et al., 1997). Briefly, lipids were dissolved in a solvent containing 5% glycerol and 0.72% phosphocholine in 0.9% saline, heated at 80° C. for 10 min, and then sonicated 1 min four times. For TG:palmitoleate, the heating was omitted to avoid oxidization of the lipids. Lipids stay in suspension for a week, so to prevent clogging the preparations must be vortexed well before loading the syringe and tubing. Seven days before lipid infusion, mice were anesthetized and an indwelling catheter inserted in the left internal jugular vein, then the animals were left to recover the following days. After overnight fasting, lipids were infused at a rate of 500 μl/kg/min for six hours. At the end of the infusion, insulin (1 U/Kg) was injected into mice via the infusion tubing and tissues were collected for subsequent gene expression and immunoblotting analyses. To determine serum FFA level during lipid infusion, blood was collected from mouse tails at different time intervals and spun down to collect plasma. Serum FFAs were determined using a commercial kit (Wako Chem.). TG:palmitate and TG:palmitoleate are difficult to dissolve at a concentration that are compatible with the infusion rate of hyperinsulinemic-euglycemic clamp study and yet maintain efficient delivery of these lipids. Therefore fatty acid: palmitoleate was used to infuse mice for clamp study. Palmitoleate was dissolved in saline containing 2% BSA (vehicle) at 15 mM with repeated sonications and was infused through the tubing at a rate of 3.3 μl/min for two hours. A standard hyperinsulinemic-euglycernic clamp was then performed as previously described (Furuhashi et al., 2007). Vehicle or palmitoleate solution was used to dissolve tracer ^3H-glucose and so lipid was also infused at 3.3 μl/min throughout the 4-hour period of clamp study.

[2] = test system: insulin receptor, IRS-1, IRS-2 and AKT phosphorylation in liver; assay: Insulin signaling in liver of lipid-infused mice (immunoblotting); assay type: in vivo; details: TG lipid infusion, compared to vehicle controls
Excerpt: (§1) FIGS. 7A-7G show data on the regulation of insulin signaling and glucose metabolism by palmitoleate. FIG. 7A is the basal and insulin-stimulated phosphorylation of insulin receptor (IR), insulin receptor substrate-1 (IRS-1) and -2 (IRS-2) and AKT in liver of mice infused with vehicle (Veh), TG:palmitoleate (C16:1n7) or TG:palmitate (C16). Representative blots are shown and quantifications on the right are averaged results of three mice in each treatment group. […] Representative blots are shown and quantifications on the right are averaged results of three mice in each treatment group.
(§2) The left panel presents the insulin-stimulated phosphorylation of insulin receptor and AKT in liver of mice infused with vehicle or palmitoleate. […] Mice were infused with vehicle or palmitoleate at 3.3 μl/min for six hrs, and insulin (1 U/Kg) was injected through the infusing tubing. Three minutes after insulin injection, tissues were collected and immunoblotting analyses were performed.
(§3) The present invention also provides for the regulation of insulin action by increased circulating palmitoleate. To study whether palmitoleate regulates systemic metabolic responses, lipid infusions were administered in conscious mice. Lipid infusion has been used widely to investigate the relationship between plasma FFAs and insulin resistance, but almost all studies using this protocol utilized preparations of natural lipid products containing a variety of fatty acids. Kim et al., 114 J. Clin. Invest. 823-27 (2004); Kim et al., 277 J. Biol. Chem. 32915-22 (2002); Yu et al., 277 J. Biol. Chem. 50230-36 (2002). […]
(§4) Samples of 200 μl serum were collected using heparin-coated glass tubes and spun at 13,000 g in a microcentrifuge to separate the plasma. […] Tissue protein lysates was separated with SDS-PAGE gels and phosphorylated or total proteins were detected with the following antibodies: phospho AKT Serine 473, AKT, insulin receptor, phospho-tyrosine (Santa Cruz Biotech.); IRS-1 and IRS-2 (Upstate); phospho-GSK and GSK (Cell Signaling Tech.); phospho-insulin receptor from (Calbiocbem). […]

aP2 = target: T1, aP2 (Mus musculus, UniProt P04117); assay: Lipogenic gene expression in adipose tissue of mice treated with aP2 inhibitor; assay type: in vivo; details: WT mice on HFD, oral gavage 40 mg/kg/day for two months
T1 construct: from tissue; host or cells: epididymal fat pads of mice on high-fat diet (in vivo oral dosing)
T1 sequence (P04117 1-132): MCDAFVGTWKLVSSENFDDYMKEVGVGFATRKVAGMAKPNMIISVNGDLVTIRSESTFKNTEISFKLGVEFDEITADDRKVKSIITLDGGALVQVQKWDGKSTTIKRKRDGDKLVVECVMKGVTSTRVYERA
Description: FIGS. 6A-6D present data related to the regulation of lipogenic genes in adipose and liver of WT and FABP^−/− mice. […] Gene expression patterns in epididymal fat pad were determined by quantitative real-time PCR. FIG. 6B is regulation of lipogenic gene promoter activities by FABPs in differentiated adipocytes. […] Gene expressions in epididymal fat pads from mice treated with vehicle or aP2 inhibitor were determined with quantitative real-time PCR. […] relates to the differential regulation of lipogenic gene expression in adipose and liver tissues. Levels of the mRNAs in liver and epididymal fat pad from mice fed with high-fat diet were determined with quantitative real-time PCR. ACC1, acetyl-CoA carboxylase1; FAS, fatty acid synthase; SCD-1, stearoyl-CoA desaturase; ELOVL6, fatty acid elongase 6; DGAT1, acyl-CoA:diacylglycerol acyltransferase 1. *, p<0.05.
To directly address this, adipogenic cell lines from FABP−/−mice were differentiated them into adipocytes (FIG. 19). […] This observation agrees with that observed in adipose tissue of FABP-deficient mice. This pattern was tested in vivo in an alternative experimental system where aP2 function in mice is blocked through an orally administrated synthetic inhibitor. […] Furuhashi et al., 2007. […]

SCD-1 promoter = assay: SCD-1 promoter-driven luciferase reporter in FAO hepatoma cells; assay type: cell-based, murine; details: hepatocytes (FAO) treated with a single fatty acid, 300 μM
Description: This possibility was tested using several highly sensitive assays to probe the functional profile and activities of plasma lipids. SCD-1 was chosen as a target because it was determined previously that the suppression of hepatic SCD-1 activity is a major alteration in FABP-deficient mice under diet-induced or genetic obesity. Cao et al., 2006; Maeda et al., 2005. Hepatic SCD-1 expression is regulated by a variety of hormones and nutritional factors such as insulin, glucose, and polyunsaturated fatty acids (PUFAs). Ntambi & Miyazaki, 43 Prog. Lipid Res. 91-104 (2004). […] Chu et al., 26 Mol. Cell Biol. 6786-98 (2006); Ntambi, 40 J. Lipid Res. 1549-58 (1999). The 1.5 kb murine SCD-1 promoter was placed in front of a luciferase reporter and inserted into an adenovirus construct. FAO rat hepatoma cells infected with this adenovirus verified the responsiveness of this reporter to PUFA, consistent with previous observations (FIG. 15). Because this assay system was adapted to a microplate format, very small amounts of lipids were required for experimentation. This system allowed direct testing for the effects of lipids extracted from plasma of WT and FABP-deficient animals.
Lipids were extracted from whole plasma and applied to liver cells expressing the SCD-1 promoter reporter gene. […] To control for any difference in the amount of lipids extracted from plasma and to mimic the in vivo regulation of SCD-1 expression, mixtures of FFAs were generated with the same molar ratio detected in WT or FABP-deficient plasma lipids using the major fatty acids listed in FIG. 2C. […]
as §4

[3] = test system: insulin receptor signaling in muscle tissue; assay: Insulin signaling in muscle of lipid-infused mice (immunoblotting); assay type: in vivo; details: TG lipid infusion
Excerpt: as §1, §2, §3, §4

Row | Compound | SCD-1 expression in liver [1] | fatty acid elongase 6 (ELOVL6) expression in liver [1] | fatty acid synthase (FAS) expression in liver [1] | proximal insulin-signaling pathway in liver (insulin receptor, IRS-1, IRS-2, AKT) [2] | insulin receptor signaling in muscle [3] | other results
1 | CCCCCCCCCCCCCCCC(=O)OCC(COC(=O)CCCCCCCCCCCCCCC)OC(=O)CCCCCCCCCCCCCCC [TG-palmitate, reference compound] | increase | increase | increase | suppressed |  | 
2 | CCCCCC/C=C\CCCCCCCC(=O)OCC(COC(=O)CCCCCCC/C=C\CCCCCC)OC(=O)CCCCCCC/C=C\CCCCCC [TG-palmitoleate] | substantial decrease | substantial decrease | substantial decrease | strongly potentiated |  | 
3 | CCc1c(-c2ccccc2)c(-c2ccccc2)nn1-c1ccccc1-c1cccc(OCC(=O)O)c1 [aP2 inhibitor] |  |  |  |  |  | lipogenic gene expression in adipose tissues (aP2): increased
4 | CCCCC/C=C\C/C=C\C/C=C\C/C=C\CCCC(=O)O [arachidonic acid, reference compound] |  |  |  |  |  | SCD-1 promoter-driven reporter activity (SCD-1 promoter): suppressed
5 | CCCCCCCCCCCCCCCC(=O)O [palmitate, reference compound] |  |  |  |  | impaired | 
6 | C16:1n7-palmitoleate |  |  |  |  | enhanced | 
